Laboratory results as given in ChEMBL document CHEMBL1255171.
Activity calls are given as the source filed them. No cut-off for these calls is given here. Where a SMILES comes first, the peptide text is derived from it. Bridges are numbered along the chain shown (N, C = ends).

Experiments:
[1] = target: Secretin receptor (Homo sapiens) (UniProt P47872); test: Agonist activity at secretin receptor expressed in CHO cells assessed as increase of cAMP level at 1 uM; format: functional, cell-based
[2] = target: Secretin receptor (Homo sapiens) (UniProt P47872); test: Displacement of [125I]-secretin-27 from secretin receptor expressed in CHO cells at 1 uM by gamma-spectrometer analysis; format: cell-based

Chain of Secretin receptor (Homo sapiens) (P47872 whole entry): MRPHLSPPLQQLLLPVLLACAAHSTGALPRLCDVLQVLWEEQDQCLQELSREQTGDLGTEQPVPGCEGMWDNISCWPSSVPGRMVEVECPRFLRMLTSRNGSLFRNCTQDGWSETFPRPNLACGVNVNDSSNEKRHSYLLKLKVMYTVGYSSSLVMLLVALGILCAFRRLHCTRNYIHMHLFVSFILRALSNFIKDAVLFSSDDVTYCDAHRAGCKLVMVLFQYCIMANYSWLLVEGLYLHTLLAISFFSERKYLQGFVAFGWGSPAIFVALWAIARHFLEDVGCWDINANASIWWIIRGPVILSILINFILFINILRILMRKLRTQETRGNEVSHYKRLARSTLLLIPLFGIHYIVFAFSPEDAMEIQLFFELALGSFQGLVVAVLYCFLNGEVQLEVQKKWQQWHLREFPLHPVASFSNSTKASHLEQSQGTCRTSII

| Activity [1] | Activity [2] | SMILES |
| --- | --- | --- |
| Active | – | CC(C)C[C@H](NC(=O)CNC(=O)[C@H](CCC(N)=O)NC(=O)[C@H](CC(C)C)NC(=O)[C@H](CC(C)C)NC(=O)[C@H](CCCNC(=N)N)NC(=O)[C@H](CCC(N)=O)NC(=O)[C@H](CC(C)C)NC(=O)[C@H](CCCNC(=N)N)NC(=O)[C@H](C)NC(=O)[C@H](CO)NC(=O)[C@H](CC(=O)O)NC(=O)[C@H](CCC(N)=O)NC(=O)[C@H](CC(C)C)NC(=O)[C@H](CCCNC(=N)N)NC(=O)[C@H](CO)NC(=O)[C@H](Cc1ccc(O)cc1)NC(=O)[C@@H]1CSSC[C@H](NC(=O)[C@H](Cc2ccccc2)NC(=O)[C@@H](NC(=O)CNC(=O)[C@H](CC(=O)O)NC(=O)[C@H](CO)NC(=O)[C@@H](N)Cc2cnc[nH]2)[C@@H](C)O)C(=O)N[C@@H](CO)C(=O)N1)C(=O)N[C@H](C(N)=O)C(C)C (H-HSDGTFCSCYSRLQDSARLQRLLQGLV-NH2; disulfide 7-9) |
| Active | Active | CC(C)C[C@H](NC(=O)CNC(=O)[C@H](CCC(N)=O)NC(=O)[C@H](CC(C)C)NC(=O)[C@H](CC(C)C)NC(=O)[C@H](CCCNC(=N)N)NC(=O)[C@H](CCC(N)=O)NC(=O)[C@H](CC(C)C)NC(=O)[C@H](CCCNC(=N)N)NC(=O)[C@H](C)NC(=O)[C@H](CO)NC(=O)[C@H](CC(=O)O)NC(=O)[C@H](CCC(N)=O)NC(=O)[C@H](CC(C)C)NC(=O)[C@H](CCCNC(=N)N)NC(=O)[C@H](CO)NC(=O)[C@H](Cc1ccc(O)cc1)NC(=O)[C@H](CCC(=O)O)NC(=O)[C@H](CO)NC(=O)[C@@H](NC(=O)[C@H](Cc1ccccc1)NC(=O)[C@@H]1CSSC[C@H](NC(=O)[C@H](CO)NC(=O)[C@@H](N)Cc2cnc[nH]2)C(=O)NCC(=O)N1)[C@@H](C)O)C(=O)N[C@H](C(N)=O)C(C)C (H-HSCGCFTSEYSRLQDSARLQRLLQGLV-NH2; disulfide 3-5) |
| Active | Active | CC(C)C[C@H](NC(=O)CNC(=O)[C@H](CCC(N)=O)NC(=O)[C@H](CC(C)C)NC(=O)[C@H](CC(C)C)NC(=O)[C@H](CCCNC(=N)N)NC(=O)[C@H](CCC(N)=O)NC(=O)[C@H](CC(C)C)NC(=O)[C@H](CCCNC(=N)N)NC(=O)[C@H](C)NC(=O)[C@H](CO)NC(=O)[C@H](CC(=O)O)NC(=O)[C@H](CCC(N)=O)NC(=O)[C@H](CC(C)C)NC(=O)[C@H](CCCNC(=N)N)NC(=O)[C@H](CO)NC(=O)[C@H](Cc1ccc(O)cc1)NC(=O)[C@H](CCC(=O)O)NC(=O)[C@H](CO)NC(=O)[C@@H]1CSSC[C@H](NC(=O)[C@H](CC(=O)O)NC(=O)[C@H](CO)NC(=O)[C@@H](N)Cc2cnc[nH]2)C(=O)N[C@@H]([C@@H](C)O)C(=O)N[C@@H](Cc2ccccc2)C(=O)N1)C(=O)N[C@H](C(N)=O)C(C)C (H-HSDCTFCSEYSRLQDSARLQRLLQGLV-NH2; disulfide 4-7) |
